Measured values reported in ChEMBL document CHEMBL1201862, “PubChem BioAssay data set” (2004).
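Values below derive from 48-hour exposures of cells grown in 96-well plates, with endpoints linearly interpolated between the two concentrations bracketing the appropriate inhibition level. GI50 marks 50% less growth.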 Active and inactive are the calls of the source. Cut-off read from the data, not from the text of the source: active = GI50 up to about 1.1 µM and inactive = higher.

What was measured:
Experiment in all cases: NCI-60 cell line screen, 48 h
LOX IMVI = tested on: LOX IMVI
RPMI-8226 = tested on: RPMI-8226
HCT-15 = tested on: HCT-15
MOLT-4 = tested on: MOLT-4
NCI-H226 = tested on: NCI-H226
CCRF-CEM = tested on: CCRF-CEM
SK-MEL-5 = tested on: SK-MEL-5
HCC 2998 = tested on: HCC 2998
OVCAR-3 = tested on: OVCAR-3
BT-549 = tested on: BT-549
M14 = tested on: M14
NCI/ADR-RES = tested on: NCI/ADR-RES
MCF7 = tested on: MCF7
T47D = tested on: T47D
SK-OV-3 = tested on: SK-OV-3
TK-10 = tested on: TK-10
KM12 = tested on: KM12
SF-295 = tested on: SF-295
SNB-75 = tested on: SNB-75
UACC-62 = tested on: UACC-62

| SMILES | GI50 (LOX IMVI) | GI50 (RPMI-8226) | GI50 (HCT-15) [µM] | GI50 (MOLT-4) | GI50 (NCI-H226) | GI50 (CCRF-CEM) | GI50 (SK-MEL-5) | GI50 (HCC 2998) | GI50 (OVCAR-3) | GI50 (BT-549) | GI50 (M14) | GI50 (NCI/ADR-RES) | GI50 (MCF7) | GI50 (T47D) | GI50 (SK-OV-3) | GI50 (TK-10) | GI50 (KM12) | GI50 (SF-295) | GI50 (SNB-75) | GI50 (UACC-62) |
| --- | --- | --- | --- | --- | --- | --- | --- | --- | --- | --- | --- | --- | --- | --- | --- | --- | --- | --- | --- | --- |
| N#CC1=C(N)N(/N=C/c2ccco2)C(c2ccco2)C1(C#N)C#N (stereo not given) | 14.2 µM (inactive) | 20.8 µM (inactive) | 15.3 | 11.9 µM (inactive) | 18.6 µM (inactive) | 4.76 µM (inactive) | 15.3 µM (inactive) | 19.4 µM (inactive) | 18.2 µM (inactive) | 17.6 µM (inactive) | 20 µM (inactive) | 25.1 µM (inactive) | 20.5 µM (inactive) | 12.4 µM (inactive) | 33.7 µM (inactive) | 17.4 µM (inactive) | 15.1 µM (inactive) | 28.4 µM (inactive) | 16.8 µM (inactive) | 17.6 µM (inactive) |
| CC1(C)CC(=O)C(CC2C(=O)c3ccccc3C2=O)C(=O)C1C(=O)C(=O)Nc1cccc2ccc(O)cc12 (stereo not given) | 94.4 µM (inactive) | 66.5 µM (inactive) | 59.3 | 53.5 µM (inactive) | 29 µM (inactive) | < 0.01 µM (active) | > 100 µM (inactive) | > 100 µM (inactive) | 48.9 µM (inactive) | 15 µM (inactive) | > 100 µM (inactive) | 54.1 µM (inactive) | 32.2 µM (inactive) | 27.4 µM (inactive) | > 100 µM (inactive) | 54 µM (inactive) | > 100 µM (inactive) | 92.3 µM (inactive) | 78 µM (inactive) | > 100 µM (inactive) |
